Laboratory results: US9511134B2, “Inducing immune responses to influenza virus using polypeptide and nucleic acid compositions” (priority 2006, dated 2016)
Several values for one entry are separate records, joined by “and”; a condition that tells them apart may be missing. Equal values may be shown once. Read-outs that look alike come from different tables or passages of the source.

What was measured:
Test in all cases: biochemical
Type in all cases: binding
DRB1*1501 = molecular target: T1, DRB1*1501 (Homo sapiens, UniProt P01903+P01911); conditions: read-out: IC50 nM to purified HLA DRB1*1501
T1 construct: made in house; host or cells: EBV-transformed homozygous human B cell lines, transfected fibroblasts or single-allele 721.221 transfectants

DRB1*0701 = DRB1*0701 (Homo sapiens, UniProt P01903+P01911, A100R/A102G/A103Q/D57E/D86V/E43K/F76Y/K127E/L162R/M171V/P40G/Q125H/Q99D/R33Q/R42Y/R54Q/S133A/S66F/T210M/V115G/Y107V/Y59L/Y89S)
DRB1*0401 = molecular target: T2, DRB1*0401 (Homo sapiens, UniProt P01903+P01911, A100K/A169T/F76Y/I96L/K127E/L162R/M171V/N62H/P40V/Q125Y/R42H/S133A/S149N/S66Y/V115G/V209L/W38E); conditions: read-out: IC50 nM to purified HLA DRB1*0401
T2 construct: made in house; host or cells: EBV-transformed homozygous human B cell lines, transfected fibroblasts or single-allele 721.221 transfectants

DRB1*0404 = DRB1*0404 (Homo sapiens, UniProt P01903+P01911, A100R/A169T/F76Y/I96L/K127E/L162R/M171V/N62H/P40V/Q125Y/R42H/S133A/S149N/S66Y/V209L/W38E)
DRB1*0101 = molecular target: T3, DRB1*0101 (Homo sapiens, UniProt P01903+P01911, A100R/D57E/F55L/F60I/F76Y/I96L/L162R/M171V/P40L/Q125E/R42F/V115G/Y59C)
T3 construct: made in house; host or cells: EBV-transformed homozygous human B cell lines, transfected fibroblasts or single-allele 721.221 transfectants

DRB1*1101 = DRB1*1101 (Homo sapiens, UniProt P01903+P01911, A100R/A169T/A87E/I96F/K41T/L162R/M171V/P40S/Q125H/Q178H/Q39Y/Q99D/R42S/S66Y/T262R/V115G/W38E); conditions: read-out: IC50 nM to purified HLA DRB1*1101
DRB1*0405 = DRB1*0405 (Homo sapiens, UniProt P01903+P01911, A100R/A169T/D86S/F76Y/I96L/K127E/L162R/M171V/N62H/P40V/Q125Y/R42H/S133A/S149N/S66Y/V115G/V209L/W38E); conditions: read-out: IC50 nM to purified HLA DRB1*0405
DRB1*0301 = molecular target: T4, DRB1*0301 (Homo sapiens, UniProt P01903+P01911, A100K/A102G/A103R/A169T/F55Y/I96L/K41T/L162R/M171V/P40S/Q125H/Q178H/Q39Y/R42S/S66N/T106N/T262R/W38E/Y61H)
T4 construct: made in house; host or cells: EBV-transformed homozygous human B cell lines, transfected fibroblasts or single-allele 721.221 transfectants

DRB1*1302 = DRB1*1302 (Homo sapiens, UniProt P01903+P01911, A100E/A169T/K41T/L162R/M171V/P40S/Q125H/Q178H/Q39Y/Q99D/R42S/S66N/T262R/V115G/W38E/Y61H); conditions: read-out: IC50 nM to purified HLA DRB1*1302
DRB4*0101 = molecular target: T5, DRB4*0101 (Homo sapiens, UniProt P01903+P13762, G164S); conditions: IC50 nM to purified HLA DRB4*0101
T5 construct: made in house; host or cells: EBV-transformed homozygous human B cell lines, transfected fibroblasts or single-allele 721.221 transfectants

DRB5*0101 = molecular target: T6, DRB5*0101 (Homo sapiens, UniProt P01903+Q30154)
T6 construct: made in house; host or cells: EBV-transformed homozygous human B cell lines, transfected fibroblasts or single-allele 721.221 transfectants

DRB1*0802 = DRB1*0802 (Homo sapiens, UniProt P01903+P01911, A100R/A103L/A169T/F76Y/H45Y/I96F/K41T/L162R/M171V/P40S/Q125H/Q178H/Q39Y/Q99D/R218S/R42G/S66Y/V115G/W38E)
[1] = IC50 nM to purified HLA DRB1*0404
[2] = IC50 nM to purified HLA DRB1*0101

Chain of DRB1*1101 (P01903 26-254 limits assumed, other chains not shown): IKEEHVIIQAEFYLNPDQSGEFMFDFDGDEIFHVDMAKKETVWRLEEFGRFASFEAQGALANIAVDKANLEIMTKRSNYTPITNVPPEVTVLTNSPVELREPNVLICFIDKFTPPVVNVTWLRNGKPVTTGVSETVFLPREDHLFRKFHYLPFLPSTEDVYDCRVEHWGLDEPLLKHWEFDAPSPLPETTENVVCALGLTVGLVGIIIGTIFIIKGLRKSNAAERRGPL
T4 sequence (P01903 26-254, other chains not shown): as the sequence (P01903 26-254 limits assumed, other chains not shown) above
Chain of DRB1*1302 (P01903 26-254 limits assumed, other chains not shown): as above

Structure (SMILES)	IC50 (DRB1*1501)	IC50 (DRB1*0401)	IC50 (DRB1*1101)	IC50 (DRB1*0405)	IC50 (DRB1*0301)	IC50 (DRB1*0701)	IC50 (DRB1*0101; [2])	further results
CC[C@H](C)[C@H](NC(=O)CNC(=O)[C@@H](NC(=O)[C@@H](NC(=O)[C@H](CO)NC(=O)[C@H](C)NC(=O)[C@H](C)NC(=O)[C@@H](NC(=O)[C@@H](NC(=O)[C@H](CC(C)C)NC(=O)[C@@H]1CCCN1C(=O)[C@@H](N)CC(=O)O)C(C)C)C(C)C)[C@@H](C)CC)[C@@H](C)CC)C(=O)N[C@@H](CC(C)C)C(=O)N[C@@H](Cc1c[nH]cn1)C(=O)N[C@@H](CC(C)C)C(=O)O [Flu.M2.27]	2200 nM	92 nM	1800 nM	630 nM	–	–	–	IC50 (DRB1*0701; read-out: IC50 nM to purified HLA DRB1*0701): 1300 nM; IC50 (DRB1*0404; read-out: IC50 nM to purified HLA DRB1*0404): 23 nM; IC50 (DRB1*0101; read-out: IC50 nM to purified HLA DRB1*0101): 78 nM
CC[C@H](C)[C@H](NC(=O)[C@H](CCC(=O)O)NC(=O)CNC(=O)[C@@H](N)C(C)C)C(=O)N[C@@H](CO)C(=O)N1CCC[C@H]1C(=O)N[C@@H](CC(C)C)C(=O)N1CCC[C@H]1C(=O)N[C@@H](CO)C(=O)N[C@@H](CC(C)C)C(=O)N1CCC[C@H]1C(=O)NCC(=O)N[C@@H](Cc1c[nH]cn1)C(=O)N[C@H](C(=O)N[C@@H](CC(=O)O)C(=O)O)[C@@H](C)O [Flu.NS1.160]	38 nM and 28 nM	31 nM and 16 nM	90 nM	–	> 10000 nM	> 10000 nM	14 nM and 12 nM	IC50 (DRB1*1501; Table 4): 38 nM; IC50 (DRB1*0401; Table 4): 31 nM; IC50 (DRB1*0404; [1]): 8.5 nM; IC50 (DRB1*0101; IC50 nM to purified HLA DRB1*0101, Table 4): 14 nM; IC50 (DRB1*1302): > 10000 nM
CC[C@H](C)[C@H](NC(=O)CNC(=O)[C@@H]1CCCN1C(=O)[C@H](Cc1c[nH]cn1)NC(=O)[C@H](CO)NC(=O)[C@H](CCC(=O)O)NC(=O)[C@H](CCC(=O)O)NC(=O)[C@H](CC(C)C)NC(=O)[C@H](Cc1ccccc1)NC(=O)[C@H](C)NC(=O)[C@H](CCSC)NC(=O)[C@H](C)N)C(=O)N[C@@H](Cc1ccccc1)C(=O)N[C@@H](CCC(=O)O)C(=O)N[C@@H](CC(N)=O)C(=O)O [Flu.PB1.94]	–	–	–	–	400 nM	84 nM	–	–
CSCC[C@H](NC(=O)[C@H](CO)NC(=O)[C@H](CCCCN)NC(=O)[C@H](C)N)C(=O)N[C@@H](CCC(=O)O)C(=O)N[C@@H](Cc1ccc(O)cc1)C(=O)N[C@@H](CC(=O)O)C(=O)N[C@@H](C)C(=O)N[C@H](C(=O)N[C@@H](C)C(=O)N[C@H](C(=O)N[C@H](C(=O)N[C@@H](Cc1c[nH]cn1)C(=O)N[C@@H](CO)C(=O)N[C@@H](Cc1c[nH]c2ccccc12)C(=O)O)[C@@H](C)O)[C@@H](C)O)C(C)C [Flu.PB1.655]	1990 nM	53 nM	6620 nM	626 nM	909 nM	292 nM	202 nM	IC50 (DRB4*0101): 6340 nM; IC50 (DRB1*0404; [1]): 646 nM; IC50 (DRB5*0101): 3530 nM; IC50 (DRB1*1302): 2180 nM
CC[C@H](C)[C@H](NC(=O)CNC(=O)[C@@H](NC(=O)[C@@H]1CCCN1C(=O)[C@H](CCCNC(=N)N)NC(=O)[C@@H](N)CCCNC(=N)N)C(C)C)C(=O)N[C@@H](CO)C(=O)N[C@@H](CO)C(=O)N[C@@H](CCSC)C(=O)N[C@H](C(=O)N[C@@H](CCC(=O)O)C(=O)N[C@@H](C)C(=O)N[C@@H](CCSC)C(=O)N[C@H](C(=O)N[C@@H](CO)C(=O)O)C(C)C)C(C)C [Flu.PB1.709]	240 nM	–	–	–	–	1800 nM	–	–
CSCC[C@H](NC(=O)[C@@H](NC(=O)[C@H](CCCNC(=N)N)NC(=O)[C@@H](N)CC(=O)O)C(C)C)C(=O)N[C@H](C(=O)N[C@@H](CO)C(=O)N1CCC[C@H]1C(=O)N[C@@H](CC(C)C)C(=O)N[C@@H](C)C(=O)N[C@H](C(=O)N[C@H](C(=O)N[C@@H](Cc1c[nH]c2ccccc12)C(=O)N[C@@H](Cc1c[nH]c2ccccc12)C(=O)N[C@@H](CC(N)=O)C(=O)N[C@@H](CCCNC(=N)N)C(=O)O)[C@@H](C)O)C(C)C)C(C)C [Flu.PB2.90]	–	–	–	16000 nM	–	–	93 nM	IC50 (DRB1*0802): 3550 nM
CC[C@H](C)[C@H](NC(=O)[C@H](CC(C)C)NC(=O)[C@@H](NC(=O)[C@@H](N)CC(N)=O)C(C)C)C(=O)NCC(=O)N[C@@H](CCC(N)=O)C(=O)NCC(=O)N[C@@H](CC(=O)O)C(=O)N[C@H](C(=O)N[C@H](C(=O)N[C@@H](CC(C)C)C(=O)N[C@H](C(=O)N[C@@H](CCSC)C(=O)N[C@@H](CCCCN)C(=O)N[C@@H](CCCNC(=N)N)C(=O)O)C(C)C)C(C)C)C(C)C [Flu.PB2.726]	–	–	–	–	–	–	–	IC50 (DRB1*0802): 1080 nM; IC50 (DRB5*0101): 4200 nM
